Experimental data: US20140377340A1, “HLA-DR BINDING PEPTIDES AND THEIR USES” (priority 2007, published 2014)
Ends that are not written are not given here.

What was measured:
[1] = target: T1, purified HLA DRB4*0101 (Homo sapiens, UniProt P01903+P13762, G164S); test: HLA-DR radioligand binding inhibition assay, DRB4*0101; conditions: IC50 nM purified HLA DRB4 *0101, purified HLA DRB4*0101
T1 construct: purified from EBV transformed homozygous cell lines or single MHC allele transfected 721.221, C1R, or fibroblast lines; made in house
In short: (§1)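 Bound radioactivity is read after 3-hour capture of complexes in 0.05% NP40/PBS on antibody-coated plates. Binding reactions pair 1-10 nM labeled peptide with 1 μM to 1 nM HLA-DR for two days.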

[2] = target: T2, purified HLA DRB1*1501 (Homo sapiens, UniProt P01903+P01911); test: HLA-DR radioligand binding inhibition assay, DRB1*1501
T2 construct: purified from EBV transformed homozygous cell lines or single MHC allele transfected 721.221, C1R, or fibroblast lines; made in house
In short: as §1

[3] = target: T3, purified HLA DRB1*1101 (Homo sapiens, UniProt P01903+P01911, A100R/A169T/A87E/I96F/K41T/L162R/M171V/P40S/Q125H/Q178H/Q39Y/Q99D/R42S/S66Y/T262R/V115G/W38E); test: HLA-DR radioligand binding inhibition assay, DRB1*1101; conditions: IC50 nM purified HLA DRB1 *1101, purified HLA DRB1*1101
T3 construct: purified from EBV transformed homozygous cell lines or single MHC allele transfected 721.221, C1R, or fibroblast lines; made in house
T3 sequence (P01903 26-254, other chains not shown): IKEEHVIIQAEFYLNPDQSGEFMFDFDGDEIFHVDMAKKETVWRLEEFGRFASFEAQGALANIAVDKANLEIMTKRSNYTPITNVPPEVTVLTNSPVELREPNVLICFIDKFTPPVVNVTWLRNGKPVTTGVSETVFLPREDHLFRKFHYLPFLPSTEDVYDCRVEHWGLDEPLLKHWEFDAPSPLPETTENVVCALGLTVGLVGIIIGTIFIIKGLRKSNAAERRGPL
In short: as §1

[4] = target: T4, purified HLA DRB1*1302 (Homo sapiens, UniProt P01903+P01911, A100E/A169T/K41T/L162R/M171V/P40S/Q125H/Q178H/Q39Y/Q99D/R42S/S66N/T262R/V115G/W38E/Y61H); test: HLA-DR radioligand binding inhibition assay, DRB1*1302
T4 construct: purified from EBV transformed homozygous cell lines or single MHC allele transfected 721.221, C1R, or fibroblast lines; made in house
In short: as §1

[5] = target: T5, purified HLA DRB1*0401 (Homo sapiens, UniProt P01903+P01911, A100K/A169T/F76Y/I96L/K127E/L162R/M171V/N62H/P40V/Q125Y/R42H/S133A/S149N/S66Y/V115G/V209L/W38E); test: HLA-DR radioligand binding inhibition assay, DRB1*0401; conditions: IC50 nM purified HLA DRB1 *0401, purified HLA DRB1*0401
T5 construct: purified from EBV transformed homozygous cell lines or single MHC allele transfected 721.221, C1R, or fibroblast lines; made in house
In short: as §1

[6] = target: T6, purified HLA DRB5*0101 (Homo sapiens, UniProt P01903+Q30154); test: HLA-DR radioligand binding inhibition assay, DRB5*0101; conditions: IC50 nM purified HLA DRB5 *0101, purified HLA DRB5*0101
T6 construct: purified from EBV transformed homozygous cell lines or single MHC allele transfected 721.221, C1R, or fibroblast lines; made in house
In short: as §1

[7] = target: T7, purified HLA DRB1*0404 (Homo sapiens, UniProt P01903+P01911, A100R/A169T/F76Y/I96L/K127E/L162R/M171V/N62H/P40V/Q125Y/R42H/S133A/S149N/S66Y/V209L/W38E); test: HLA-DR radioligand binding inhibition assay, DRB1*0404; conditions: IC50 nM purified HLA DRB1 *0404, purified HLA DRB1*0404
T7 construct: purified from EBV transformed homozygous cell lines or single MHC allele transfected 721.221, C1R, or fibroblast lines; made in house
Procedure: (§2) Instead, wells of an opaque white 96-well Optiplate (Packard) are coated with 3 μg (100 μl@ 30 μg/ml) of HLA-specific antibody (Ab) that “capture” complexes of radiolabeled MHC and unlabeled peptide transferred from the molecular binding assay plate in 100 μl of 0.05% NP40/PBS. After a 3-hour incubation period, the supernatant is decanted and scintillation fluid (Microscint 20) added. Captured complexes are then measured on a microplate scintillation and luminescence counter (TopCount NXTTM; Packard).
(§3) HLA-DR purification. Fifteen distinct HLA-DR molecules were used in quantitative assays to measure the binding of peptides to solubilized HLA-DR molecules. […] Briefly, columns of inactivated Sepharose CL4B and Protein A Sepharose were used as pre-columns. HLA-DR molecules were captured by passage of lysates over LB3.1 monoclonal antibody (anti-HLA-DRA) columns. Antibody columns were washed with 10 mM Tris-HCL, pH8.0 with 1% (v/v) NP-40, followed by PBS containing 0.4% (w/v) n-octylglucoside.
(§4) Briefly, 1-10 nM of radiolabeled peptide was co-incubated for 2 days at either room temperature or 37° C. with 1 μM to 1 nM purified HLA-DR molecules in the presence of a cocktail of protease inhibitors. Assays were performed at various pH conditions, ranging from pH 4 to pH 7. […] After incubation, the percentage of HLA-DR-bound radioactivity is determined by capturing HLA-DR/peptide complexes on Optiplates (Packard Instruments, Meriden, Conn.) coated with the LB3.1 antibody and determining bound counts per minute using the TopCount microscintillation counter (Packard Instruments).

[8] = target: T8, purified HLA DRB1*0405 (Homo sapiens, UniProt P01903+P01911, A100R/A169T/D86S/F76Y/I96L/K127E/L162R/M171V/N62H/P40V/Q125Y/R42H/S133A/S149N/S66Y/V115G/V209L/W38E); test: HLA-DR radioligand binding inhibition assay, DRB1*0405; conditions: IC50 nM purified HLA DRB1 *0405, purified HLA DRB1*0405
T8 construct: purified from EBV transformed homozygous cell lines or single MHC allele transfected 721.221, C1R, or fibroblast lines; made in house
In short: as §1

[9] = target: T9, purified HLA DRB1*0701 (Homo sapiens, UniProt P01903+P01911, A100R/A102G/A103Q/D57E/D86V/E43K/F76Y/K127E/L162R/M171V/P40G/Q125H/Q99D/R33Q/R42Y/R54Q/S133A/S66F/T210M/V115G/Y107V/Y59L/Y89S); test: HLA-DR radioligand binding inhibition assay, DRB1*0701; conditions: IC50 nM purified HLA DRB1 *0701, purified HLA DRB1*0701
T9 construct: purified from EBV transformed homozygous cell lines or single MHC allele transfected 721.221, C1R, or fibroblast lines; made in house
In short: as §1

[10] = target: T10, purified HLA DRB3*0101 (Homo sapiens, UniProt P01903+P79483); test: HLA-DR radioligand binding inhibition assay, DRB3*0101; conditions: IC50 nM purified HLA DRB3 *0101, purified HLA DRB3*0101
T10 construct: purified from EBV transformed homozygous cell lines or single MHC allele transfected 721.221, C1R, or fibroblast lines; made in house
Procedure: as §2
as §3, with “n-octylglucoside. […] The pH was reduced to 8.0 and the eluates were concentrated by centrifugation in Centriprep 30 concentrators at 2000 rpm (Amicon, Beverly, Mass.).” for “n-octylglucoside.”
as §4, with “Instruments). […] Competitor peptides are tested in 2-4 complete, independent experiments, at concentrations ranging from […].” for “Instruments).”

[11] = target: T11, purified HLA DRB1*0301 (Homo sapiens, UniProt P01903+P01911, A100K/A102G/A103R/A169T/F55Y/I96L/K41T/L162R/M171V/P40S/Q125H/Q178H/Q39Y/R42S/S66N/T106N/T262R/W38E/Y61H); test: HLA-DR radioligand binding inhibition assay, DRB1*0301; conditions: IC50 nM purified HLA DRB1 *0301, purified HLA DRB1*0301
T11 construct: purified from EBV transformed homozygous cell lines or single MHC allele transfected 721.221, C1R, or fibroblast lines; made in house
Procedure: as §2, §3, §4

`CC[C@H](C)[C@H](N)C(=O)N[C@@H](CO)C(=O)N[C@@H](C)C(=O)N[C@H](C(=O)N[C@H](C(=O)NCC(=O)N[C@H](C(=O)N[C@@H](CC(C)C)C(=O)N[C@@H](CC(C)C)C(=O)N[C@H](C(=O)N[C@H](C(=O)N[C@H](C(=O)N[C@@H](CC(C)C)C(=O)NCC(=O)N[C@H](C(=O)O)C(C)C)C(C)C)C(C)C)C(C)C)[C@@H](C)CC)C(C)C)C(C)C` [Peptide 9019.0067] was tested, and the IC50 [1] was 3110 nM, the IC50 [2] was 6000 nM and the IC50 [3] was 5140 nM. It also gave an IC50 [4] of 443 nM, an IC50 [5] of 450 nM and an IC50 [6] of over 20000 nM. It also gave an IC50 [7] of 3000 nM, an IC50 [8] of 447 nM and an IC50 [9] of 941 nM.
`CC(C)C[C@H](NC(=O)[C@H](CCC(=O)O)NC(=O)[C@@H](NC(=O)[C@@H](N)CCC(=O)O)[C@@H](C)O)C(=O)N[C@@H](CCCNC(=N)N)C(=O)N[C@@H](CCCCN)C(=O)N[C@H](C(=O)N[C@@H](CCCCN)C(=O)N[C@H](C(=O)N[C@@H](CC(C)C)C(=O)NCC(=O)N[C@@H](CO)C(=O)NCC(=O)N[C@@H](C)C(=O)N[C@@H](Cc1ccccc1)C(=O)O)C(C)C)C(C)C` [Peptide 9019.0073] showed an IC50 [10] of over 20000 nM, an IC50 [7] of 27 nM and an IC50 [8] of 845 nM.
In the case of EELLQMELLLVNKLK [Peptide 9019.0010], the IC50 [11] is reported as 3380 nM.
TMRLPDERGPLEHLY [Peptide 9019.0021] showed an IC50 [11] of over 20000 nM.
WNLAAMTPHDFIEHF [Peptide 9019.0013] showed an IC50 [11] of 6420 nM.
